From PubChem BioAssay (NCI)
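How tested: cells in 96-well plates exposed to compound for 48 hours at five concentrations. GI50 marks 50% less growth. Definition used: TGI = concentration required for complete inhibition of growth.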

Columns and labels:
Experiment in all cases: growth of human tumour cells (NCI), 48 h
T-47D breast = system: T-47D breast
HOP-92 NSCLC = system: HOP-92 NSCLC
786-0 renal = system: 786-0 renal
MOLT-4 leukemia = system: MOLT-4 leukemia
SNB-19 CNS = system: SNB-19 CNS
NCI-H522 lung = system: NCI-H522 lung
NCI-H460 lung = system: NCI-H460 lung
MALME-3M melanoma = system: MALME-3M melanoma
HS 578T breast = system: HS 578T breast
SF-268 CNS = system: SF-268 CNS
OVCAR-8 ovarian = system: OVCAR-8 ovarian
HT29 colon = system: HT29 colon
UO-31 renal = system: UO-31 renal
HCC-2998 colon = system: HCC-2998 colon
HCT-15 colon = system: HCT-15 colon
HOP-62 NSCLC = system: HOP-62 NSCLC
COLO 205 colon = system: COLO 205 colon
SK-MEL-28 melanoma = system: SK-MEL-28 melanoma
UACC-257 melanoma = system: UACC-257 melanoma
IGROV1 ovarian = system: IGROV1 ovarian
ACHN renal = system: ACHN renal
PC-3 prostate = system: PC-3 prostate
SK-MEL-2 melanoma = system: SK-MEL-2 melanoma
A549 NSCLC = system: A549 NSCLC
EKVX NSCLC = system: EKVX NSCLC
U251 CNS = system: U251 CNS
CCRF-CEM leukemia = system: CCRF-CEM leukemia
NCI/ADR-RES ovarian = system: NCI/ADR-RES ovarian
SF-295 CNS = system: SF-295 CNS
DU-145 prostate = system: DU-145 prostate
NCI-H23 lung = system: NCI-H23 lung
SN12C renal = system: SN12C renal
OVCAR-4 ovarian = system: OVCAR-4 ovarian
SK-OV-3 ovarian = system: SK-OV-3 ovarian
SK-MEL-5 melanoma = system: SK-MEL-5 melanoma
BT-549 breast = system: BT-549 breast
KM12 colon = system: KM12 colon
SW-620 colon = system: SW-620 colon
RPMI-8226 leukemia = system: RPMI-8226 leukemia
OVCAR-3 ovarian = system: OVCAR-3 ovarian
M14 melanoma = system: M14 melanoma
HL-60(TB) leukemia = system: HL-60(TB) leukemia
MCF7 breast = system: MCF7 breast
K-562 leukemia = system: K-562 leukemia
CAKI-1 renal = system: CAKI-1 renal
HCT-116 colon = system: HCT-116 colon
SR leukemia = system: SR leukemia
MDA-MB-231 breast = system: MDA-MB-231 breast
RXF 393 renal = system: RXF 393 renal
TK-10 renal = system: TK-10 renal
SF-539 CNS = system: SF-539 CNS
SNB-75 CNS = system: SNB-75 CNS
MDA-MB-435 = system: MDA-MB-435
OVCAR-5 ovarian = system: OVCAR-5 ovarian
LOX IMVI melanoma = system: LOX IMVI melanoma
NCI-H226 lung = system: NCI-H226 lung
UACC-62 melanoma = system: UACC-62 melanoma
A498 renal = system: A498 renal

Work on `Cc1cc(C(=O)Nc2ncc(Cc3cccc(C(F)(F)F)c3)s2)c2ccccc2n1` yielded a GI50 (T-47D breast) of 0.181 µM, a TGI (T-47D breast) of over 100 µM and a GI50 (HOP-92 NSCLC) of 2.56 µM. It also gave a TGI (HOP-92 NSCLC) of over 100 µM, a GI50 (786-0 renal) of 2.84 µM and a TGI (786-0 renal) of over 100 µM. It also gave a GI50 (MOLT-4 leukemia) of 2.39 µM, a TGI (MOLT-4 leukemia) of over 100 µM and a GI50 (SNB-19 CNS) of 3.02 µM. It also gave a TGI (SNB-19 CNS) of over 100 µM, a GI50 (NCI-H522 lung) of 2.33 µM and a TGI (NCI-H522 lung) of over 100 µM. For the same compound, the GI50 (NCI-H460 lung) was 1.33 µM, the TGI (NCI-H460 lung) was over 100 µM and the GI50 (MALME-3M melanoma) was 3.51 µM. It also gave a TGI (MALME-3M melanoma) of over 100 µM, a GI50 (HS 578T breast) of 2.41 µM and a TGI (HS 578T breast) of over 100 µM. It also gave a GI50 (SF-268 CNS) of 2.63 µM, a TGI (SF-268 CNS) of over 100 µM and a GI50 (OVCAR-8 ovarian) of 3.49 µM. It also gave a TGI (OVCAR-8 ovarian) of over 100 µM, a GI50 (HT29 colon) of 1.14 µM and a TGI (HT29 colon) of over 100 µM. It also gave a GI50 (UO-31 renal) of 1.5 µM, a TGI (UO-31 renal) of over 100 µM and a GI50 (HCC-2998 colon) of 1.11 µM. It also gave a TGI (HCC-2998 colon) of over 100 µM, a GI50 (HCT-15 colon) of 0.084 µM and a TGI (HCT-15 colon) of over 100 µM. The GI50 (HOP-62 NSCLC) was 1.46 µM, the TGI (HOP-62 NSCLC) was over 100 µM and the GI50 (COLO 205 colon) was 0.75 µM. The TGI (COLO 205 colon) was over 100 µM, the GI50 (SK-MEL-28 melanoma) was 0.79 µM and the TGI (SK-MEL-28 melanoma) was over 100 µM. For the same compound, the GI50 (UACC-257 melanoma) was 1.75 µM, the TGI (UACC-257 melanoma) was over 100 µM and the GI50 (IGROV1 ovarian) was 3.46 µM. The TGI (IGROV1 ovarian) was over 100 µM, the GI50 (ACHN renal) was 0.339 µM and the TGI (ACHN renal) was over 100 µM. It also gave a GI50 (PC-3 prostate) of 2.31 µM, a TGI (PC-3 prostate) of over 100 µM and a GI50 (SK-MEL-2 melanoma) of 2.74 µM. It also gave a TGI (SK-MEL-2 melanoma) of over 100 µM, a GI50 (A549 NSCLC) of 3.19 µM and a TGI (A549 NSCLC) of over 100 µM. It also gave a GI50 (EKVX NSCLC) of 2.9 µM, a TGI (EKVX NSCLC) of over 100 µM and a GI50 (U251 CNS) of 2.92 µM. For the same compound, the TGI (U251 CNS) was over 100 µM, the GI50 (CCRF-CEM leukemia) was 2.54 µM and the TGI (CCRF-CEM leukemia) was over 100 µM. For the same compound, the GI50 (NCI/ADR-RES ovarian) was 2.06 µM, the TGI (NCI/ADR-RES ovarian) was over 100 µM and the GI50 (SF-295 CNS) was 1.63 µM. It also gave a TGI (SF-295 CNS) of over 100 µM, a GI50 (DU-145 prostate) of 3.47 µM and a TGI (DU-145 prostate) of over 100 µM. For the same compound, the GI50 (NCI-H23 lung) was 3.9 µM, the TGI (NCI-H23 lung) was over 100 µM and the GI50 (SN12C renal) was 3.62 µM. The TGI (SN12C renal) was over 100 µM, the GI50 (OVCAR-4 ovarian) was 4.02 µM and the TGI (OVCAR-4 ovarian) was over 100 µM. The GI50 (SK-OV-3 ovarian) was 4.24 µM, the TGI (SK-OV-3 ovarian) was over 100 µM and the GI50 (SK-MEL-5 melanoma) was 1.03 µM. It also gave a TGI (SK-MEL-5 melanoma) of over 100 µM, a GI50 (BT-549 breast) of 3.61 µM and a TGI (BT-549 breast) of over 100 µM. For the same compound, the GI50 (KM12 colon) was 0.498 µM, the TGI (KM12 colon) was over 100 µM and the GI50 (SW-620 colon) was 1.21 µM. It also gave a TGI (SW-620 colon) of over 100 µM, a GI50 (RPMI-8226 leukemia) of 2.41 µM and a TGI (RPMI-8226 leukemia) of over 100 µM. For the same compound, the GI50 (OVCAR-3 ovarian) was 2.63 µM, the TGI (OVCAR-3 ovarian) was over 100 µM and the GI50 (M14 melanoma) was 0.185 µM. It also gave a TGI (M14 melanoma) of over 100 µM, a GI50 (HL-60(TB) leukemia) of 2.21 µM and a TGI (HL-60(TB) leukemia) of 5.38 µM. For the same compound, the GI50 (MCF7 breast) was 0.579 µM, the TGI (MCF7 breast) was over 100 µM and the GI50 (K-562 leukemia) was 0.0458 µM. For the same compound, the TGI (K-562 leukemia) was over 100 µM, the GI50 (CAKI-1 renal) was 2.13 µM and the TGI (CAKI-1 renal) was over 100 µM. For the same compound, the GI50 (HCT-116 colon) was 1.29 µM, the TGI (HCT-116 colon) was over 100 µM and the GI50 (SR leukemia) was 2.02 µM. The TGI (SR leukemia) was over 100 µM.

`O=C(c1ccc(N=Cc2ccccc2O)cc1)c1ccc(N=Cc2ccccc2O)cc1` showed a TGI (T-47D breast) of over 100 µM, a TGI (HOP-92 NSCLC) of over 100 µM and a TGI (MDA-MB-231 breast) of over 100 µM. For the same compound, the TGI (RXF 393 renal) was over 100 µM, the TGI (786-0 renal) was over 100 µM and the TGI (MOLT-4 leukemia) was over 100 µM. It also gave a TGI (SNB-19 CNS) of over 100 µM, a TGI (NCI-H522 lung) of over 100 µM and a TGI (NCI-H460 lung) of over 100 µM. For the same compound, the TGI (MALME-3M melanoma) was over 100 µM, the TGI (TK-10 renal) was over 100 µM and the TGI (SF-539 CNS) was over 100 µM. It also gave a TGI (SNB-75 CNS) of over 100 µM, a TGI (SF-268 CNS) of over 100 µM and a TGI (HT29 colon) of over 100 µM. It also gave a TGI (UO-31 renal) of over 100 µM, a TGI (HCC-2998 colon) of over 100 µM and a TGI (MDA-MB-435) of over 100 µM. For the same compound, the TGI (HCT-15 colon) was over 100 µM, the TGI (HOP-62 NSCLC) was over 100 µM and the TGI (COLO 205 colon) was over 100 µM. The TGI (SK-MEL-28 melanoma) was over 100 µM, the TGI (IGROV1 ovarian) was over 100 µM and the TGI (ACHN renal) was over 100 µM. For the same compound, the TGI (PC-3 prostate) was over 100 µM, the TGI (SK-MEL-2 melanoma) was over 100 µM and the TGI (A549 NSCLC) was over 100 µM. For the same compound, the TGI (OVCAR-5 ovarian) was over 100 µM, the TGI (LOX IMVI melanoma) was over 100 µM and the TGI (EKVX NSCLC) was over 100 µM. The TGI (U251 CNS) was over 100 µM, the TGI (NCI/ADR-RES ovarian) was over 100 µM and the TGI (SF-295 CNS) was over 100 µM. For the same compound, the TGI (DU-145 prostate) was over 100 µM, the TGI (NCI-H23 lung) was over 100 µM and the TGI (OVCAR-4 ovarian) was over 100 µM. It also gave a TGI (SK-OV-3 ovarian) of over 100 µM, a TGI (SK-MEL-5 melanoma) of over 100 µM and a TGI (NCI-H226 lung) of over 100 µM. It also gave a TGI (BT-549 breast) of over 100 µM, a TGI (KM12 colon) of over 100 µM and a TGI (UACC-62 melanoma) of over 100 µM. For the same compound, the TGI (A498 renal) was over 100 µM, the TGI (SW-620 colon) was over 100 µM and the TGI (RPMI-8226 leukemia) was over 100 µM. It also gave a TGI (OVCAR-3 ovarian) of over 100 µM, a TGI (M14 melanoma) of over 100 µM and a TGI (HL-60(TB) leukemia) of over 100 µM. The TGI (MCF7 breast) was over 100 µM, the TGI (K-562 leukemia) was over 100 µM and the TGI (CAKI-1 renal) was over 100 µM. It also gave a TGI (HCT-116 colon) of over 100 µM and a TGI (SR leukemia) of over 100 µM.
